Measurements from patent EP2769738B1, “Conjugated TLR7 and/or TLR8 and TLR2 polycationic agonists” (Invivogen, priority 2013, dated 2014).

Legend:
human TLR7 = target: T1, human TLR7 (Homo sapiens, UniProt Q9NYK1); test: HEK-Blue hTLR7 NF-κB/AP-1-inducible SEAP reporter cell assay; type: cell-based; details: Figure 1; 10 µg/mL to 10 pg/ml, 24 hours, SEAP read as OD at 655 nm
T1 construct: host or cells: HEK293 (ATCC, CRL-1573), HEK-Blue hTLR7
T1 sequence (Q9NYK1 27-1049): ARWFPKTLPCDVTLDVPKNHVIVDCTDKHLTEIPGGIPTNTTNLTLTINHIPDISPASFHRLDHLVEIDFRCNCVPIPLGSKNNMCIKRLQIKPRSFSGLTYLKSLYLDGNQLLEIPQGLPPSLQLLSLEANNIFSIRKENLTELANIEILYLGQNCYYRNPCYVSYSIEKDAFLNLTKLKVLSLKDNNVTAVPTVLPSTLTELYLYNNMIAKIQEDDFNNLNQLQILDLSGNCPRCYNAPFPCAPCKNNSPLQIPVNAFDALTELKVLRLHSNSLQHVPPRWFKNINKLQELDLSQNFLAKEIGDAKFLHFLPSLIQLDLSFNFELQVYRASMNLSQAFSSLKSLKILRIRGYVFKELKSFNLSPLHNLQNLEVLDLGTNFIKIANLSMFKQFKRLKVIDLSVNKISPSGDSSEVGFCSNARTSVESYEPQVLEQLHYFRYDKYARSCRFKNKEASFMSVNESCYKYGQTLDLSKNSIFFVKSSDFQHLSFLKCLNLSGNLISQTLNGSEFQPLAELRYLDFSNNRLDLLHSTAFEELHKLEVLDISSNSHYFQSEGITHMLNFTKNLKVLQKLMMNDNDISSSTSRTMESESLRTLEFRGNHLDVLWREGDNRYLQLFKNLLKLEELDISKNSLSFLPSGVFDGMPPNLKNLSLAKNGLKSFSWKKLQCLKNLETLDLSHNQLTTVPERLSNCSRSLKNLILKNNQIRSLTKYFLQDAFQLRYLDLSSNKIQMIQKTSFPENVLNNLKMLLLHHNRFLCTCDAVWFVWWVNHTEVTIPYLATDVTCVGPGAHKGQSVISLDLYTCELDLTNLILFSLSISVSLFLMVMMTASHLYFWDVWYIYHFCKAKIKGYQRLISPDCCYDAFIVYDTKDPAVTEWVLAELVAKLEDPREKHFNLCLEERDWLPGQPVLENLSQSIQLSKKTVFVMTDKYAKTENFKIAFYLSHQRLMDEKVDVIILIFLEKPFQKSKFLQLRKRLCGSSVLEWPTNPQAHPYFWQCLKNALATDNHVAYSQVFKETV
Description: Assays for detecting TLR7, TLR8 or TLR2 activity are known in the art and include for example cell-based assays using respectively TLR7, TLR8 or TLR2 reporter cell lines (InvivoGen). The reporter cell lines are engineered HEK293 cells, a human embryonic kidney cell line (ATCC, CRL-1573) that stably express either murine TLR7 (HEK-Blue™ mTLR7) or human TLR7 (HEK-Blue™ hTLR7), human TLR8 (HEK-Blue™ hTLR8) or human TLR2 (HEK- Blue™ hTLR2) with an NF-κB-inducible secreted embryonic alkaline phosphatase (SEAP) as the reporter gene.
(§1) Cell-based assays were carried out using TLR7 and TLR2 reporter cell lines (InvivoGen). The reporter cell lines are engineered HEK293 cells, a human embryonic kidney cell line (ATCC, CRL-1573) that stably express either murine TLR7 (HEK-Blue™ mTLR7) or human TLR7 (HEK-Blue™ hTLR7) or human TLR2 (HEK- Blue™ hTLR2) with an NF-κB-inducible secreted embryonic alkaline phosphatase (SEAP) as the reporter gene. The SEAP reporter gene is under the control of the NF-κB and AP-1-inducible promoter, which, upon treatment with a corresponding TLR ligand and activation of NF-κB and AP-1, induces the production of SEAP. Detection of SEAP is measured following culturing cells in HEK-Blue™ Detection media (InvivoGen). HEK-Blue™ Detection contains a SEAP substrate that when hydrolysed by SEAP produces a colorimetric change allowing for detection of SEAP as the protein is secreted. […] These assays were carried out using RAW-Blue™ Cells (InvivoGen), derived from RAW 264.7 mouse leukemic monocyte macrophage cell line (ATCC, CRL 2278) stably overexpressing a NF-κB /AP-1 inducible SEAP reporter constructs.
(§2) To perform the assay, cells were seeded on 96 well microliter plates at 50,000 or 100,000 cells per well for HEK-Blue™ Cells and RAW-Blue™ Cells respectively, and cultured at 37 °C in the presence of the conjugated compounds The TLR7-TLR2 polyamine molecules were prepared as follows: First, stock solutions of the conjugated compounds of the invention were prepared in ethanol or water to a concentration of 10 mg/ml.
(§3) The working dilutions of the conjugated TLR7-TLR2 polyamine agonists made up in water or PBS were directly added to the reporter cell lines at a final concentration ranging from 10 µg/mL to 10 pg/ml and incubated at 37 °C for 24 hours. After 24 hours of incubation, the effect on reporter gene activity was determined by reading the OD at 655 nm using iMark™ Microplate Reader (BIO-RAD).

[1] = system: endogenous TLR2 and TLR7 in RAW-Blue™ Cells; test: RAW-Blue Cells NF-κB/AP-1 SEAP reporter assay (endogenous receptors); type: cell-based, mouse; details: Figure 4; 10 µg/mL to 10 pg/ml, 24 hours, SEAP read as OD at 655 nm
Protocol: as §1, §2, §3

ability to activate hTLR7 (human TLR7)	SMILES	ability to activate endogenous TLR2 and TLR7 in RAW-Blue™ Cells [1]
activate hTLR7	CCCCCCCCCCCCCCCC(=O)OCC(CSC[C@H](N)C(=O)N[C@@H](CCCCNC(=O)CNC(=O)c1ccc(Cn2c(O)nc3c(N)nc(NCCCC)nc32)cc1)C(=O)NCCCNCCCCNCCCN)OC(=O)CCCCCCCCCCCCCCC (stereo partly drawn) [CL475, (6R,9S)-6,23-diamino-9-(4-(2-(4-((6-amino-2-(butylamino)-8-hydroxy-9H-purin-9-yl)methyl)benzamido)acetamido)butyl)-7,10-dioxo-4-thia-8,11,15,20-tetraazatrico sane-1,2-diyl dipalmitate]	activate endogenous TLR2 and TLR7
activate hTLR7	CCCCCCCCCCCCCCCC(=O)OCC(CSC[C@H](N)C(=O)NCCCC[C@H](NC(=O)c1ccc(Cn2c(O)nc3c(N)nc(NCCCC)nc32)cc1)C(=O)NCCCNCCCCNCCCN)OC(=O)CCCCCCCCCCCCCCC (stereo partly drawn) [CL486, (6R,13S)-6,27-diamino-13-(4-((6-amino-2-(butylamino)-8-hydroxy-9H-purin-9-yl)methyl)benzamido)-7,14-dioxo-4-thia-8,15,19,24-tetraazaheptacosane-1,2-diyl dipalmitate]	activate endogenous TLR2 and TLR7
activate hTLR7	CCCCCCCCCCCCCCCC(=O)OCC(CSC[C@H](N)C(=O)NCCCC[C@H](NC(=O)CNC(=O)c1ccc(Cn2c(O)nc3c(N)nc(NCCCC)nc32)cc1)C(=O)NCCCNCCCCNCCCN)OC(=O)CCCCCCCCCCCCCCC (stereo partly drawn) [CL487, (6R,13S)-6,27-diamino-13-(2-(4-((6-amino-2-(butylamino)-8-hydroxy-9H-purin-9-yl)methyl)benzamido)acetamido)-7,14-dioxo-4-thia-8,15,19,24-tetraazaheptacosane-1,2-diyl dipalmitate]	activate endogenous TLR2 and TLR7
activate hTLR7	CCCCCCCCCCCCCCCC(=O)OCC(CSC[C@H](N)C(=O)N[C@@H](COC(=O)c1ccc(Cn2c(O)nc3c(N)nc(NCCCC)nc32)cc1)C(=O)NCCCNCCCCNCCCN)OC(=O)CCCCCCCCCCCCCCC (stereo partly drawn) [CL514, (6R,9S)-6,23-diamino-9-((4-((6-amino-2-(butylamino)-8-hydroxy-9H-purin-9-yl)methyl)benzoyloxy)methyl)-7,10-dioxo-4-thia-8,11,15,20-tetraazatricosane-1,2-diyl dipalmitate]	activate endogenous TLR2 and TLR7
activate hTLR7	CCCCCCCCCCCCCCCC(=O)OCC(CSC[C@H](N)C(=O)N[C@@H](CCC(=O)NCCCNCCCCNCCCN)C(=O)Nc1ccc(Cn2c(O)nc3c(N)nc(NCCCC)nc32)cc1)OC(=O)CCCCCCCCCCCCCCC (stereo partly drawn) [CL527, (6R,9S)-6,25-diamino-9-(4-((6-amino-2-(butylamino)-8-hydroxy-9H-purin-9-yl)methyl)phenylcarbamoyl)-7,12-dioxo-4-thia-8,13,17,22-tetraazapentacosane-1,2-diyl dipalmitate]	activate endogenous TLR2 and TLR7
activate hTLR7	CCCCCCCCCCCCCCCC(=O)OCC(CSC[C@H](N)C(=O)NCCCNCCCCNCCCNC(=O)CNC(=O)c1ccc(Cn2c(O)nc3c(N)nc(NCCCC)nc32)cc1)OC(=O)CCCCCCCCCCCCCCC (stereo partly drawn) [CL553, (20R)-20-amino-1-(4-((6-amino-2-(butylamino)-8-hydroxy-9H-purin-9-yl)methyl)phenyl)-1,4,19-trioxo-22-thia-2,5,9,14,18-pentaazapentacosane-24,25-diyl dipalmitate]	activate endogenous TLR2 and TLR7
